# Test results as given in ChEMBL document CHEMBL3132769, “Fragment growing to retain or alter the selectivity of anchored kinase hinge-binding fragments” (Medchemcomm, 2014).
# Legend:
# [1] = biological target: Protein kinase C alpha type (Homo sapiens) (UniProt P17252); assay: Inhibition of human truncated PKC alpha expressed in baculovirus assessed as substrate phosphorylation using fluorescence-labelled peptides as substrate at 420 uM after 90 mins by microfluidic peptide phosphorylation assay
# [2] = biological target: Tyrosine-protein kinase BTK (Homo sapiens) (UniProt Q06187); assay: Inhibition of human full length BTK expressed in baculovirus assessed as substrate phosphorylation using fluorescence-labelled peptides as substrate at 9 uM after 90 mins by microfluidic peptide phosphorylation assay
# [3] = biological target: Serine/threonine-protein kinase MARK2 (Homo sapiens) (UniProt Q7KZI7); assay: Inhibition of human full length MARK2 expressed in baculovirus assessed as substrate phosphorylation using fluorescence-labelled peptides as substrate at 2 uM after 90 mins by microfluidic peptide phosphorylation assay
# [4] = biological target: T1, Serine/threonine-protein kinase Sgk3 (Homo sapiens) (UniProt Q96BR1); assay: Inhibition of human full length SGK3 expressed in baculovirus assessed as substrate phosphorylation using fluorescence-labelled peptides as substrate at 2 uM after 90 mins by microfluidic peptide phosphorylation assay
# T1 sequence (whole entry): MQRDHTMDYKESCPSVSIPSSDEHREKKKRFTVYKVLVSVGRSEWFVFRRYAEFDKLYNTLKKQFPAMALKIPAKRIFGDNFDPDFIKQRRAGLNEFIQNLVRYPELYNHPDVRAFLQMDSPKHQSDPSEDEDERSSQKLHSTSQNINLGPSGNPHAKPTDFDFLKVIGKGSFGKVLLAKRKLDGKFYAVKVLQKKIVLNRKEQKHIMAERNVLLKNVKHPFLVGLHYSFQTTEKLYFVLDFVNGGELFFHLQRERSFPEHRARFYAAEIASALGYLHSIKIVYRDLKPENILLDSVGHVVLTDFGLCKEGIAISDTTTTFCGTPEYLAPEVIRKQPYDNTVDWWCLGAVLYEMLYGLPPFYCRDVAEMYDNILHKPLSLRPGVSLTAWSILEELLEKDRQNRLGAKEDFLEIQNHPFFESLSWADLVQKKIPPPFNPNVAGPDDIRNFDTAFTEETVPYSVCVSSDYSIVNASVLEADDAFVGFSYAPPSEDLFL
# [5] = biological target: Fibroblast growth factor receptor 2 (Homo sapiens) (UniProt P21802); conditions: 0.1 uM
# Description: Inhibition of human FGFR2 catalytic domain expressed in baculovirus assessed as substrate phosphorylation using fluorescence-labelled peptides as substrate at 0.1 uM after 90 mins by microfluidic peptide phosphorylation assay
# [6] = organism: Homo sapiens; assay: Inhibition of human P70S6K catalytic domain expressed in baculovirus assessed as substrate phosphorylation using fluorescence-labelled peptides as substrate at 95 uM after 90 mins by microfluidic peptide phosphorylation assay
# [7] = biological target: Ribosomal protein S6 kinase alpha-4 (Homo sapiens) (UniProt O75676); assay: Inhibition of human full length MSK2 expressed in baculovirus assessed as substrate phosphorylation using fluorescence-labelled peptides as substrate at 95 uM after 90 mins by microfluidic peptide phosphorylation assay
# [8] = biological target: Platelet-derived growth factor receptor alpha (Homo sapiens) (UniProt P16234); assay: Inhibition of human PDGFR alpha catalytic domain expressed in baculovirus assessed as substrate phosphorylation using fluorescence-labelled peptides as substrate at 95 uM after 90 mins by microfluidic peptide phosphorylation assay
# [9] = biological target: T2, Serine/threonine-protein kinase 3 (Homo sapiens) (UniProt Q13188); assay: Inhibition of human full length MST2 expressed in baculovirus assessed as substrate phosphorylation using fluorescence-labelled peptides as substrate at […] after 90 mins by microfluidic peptide phosphorylation assay
# T2 sequence (whole entry): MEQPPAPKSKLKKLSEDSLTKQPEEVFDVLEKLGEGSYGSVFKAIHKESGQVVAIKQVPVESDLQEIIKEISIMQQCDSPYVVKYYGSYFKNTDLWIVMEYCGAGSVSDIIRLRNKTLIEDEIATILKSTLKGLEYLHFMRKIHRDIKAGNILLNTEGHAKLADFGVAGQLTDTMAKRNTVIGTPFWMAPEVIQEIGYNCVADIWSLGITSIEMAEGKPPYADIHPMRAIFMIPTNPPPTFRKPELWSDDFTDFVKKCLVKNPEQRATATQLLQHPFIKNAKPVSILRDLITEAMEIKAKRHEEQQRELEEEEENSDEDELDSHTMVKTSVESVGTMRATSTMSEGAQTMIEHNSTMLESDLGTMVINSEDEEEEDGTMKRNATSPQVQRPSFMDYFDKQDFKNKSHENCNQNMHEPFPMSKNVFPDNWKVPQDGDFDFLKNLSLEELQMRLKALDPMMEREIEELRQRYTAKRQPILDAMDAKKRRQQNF
# [10] = biological target: Ribosomal protein S6 kinase alpha-1 (Homo sapiens) (UniProt Q15418); assay: Inhibition of human full length RSK1 expressed in baculovirus assessed as substrate phosphorylation using fluorescence-labelled peptides as substrate at 0.06 uM after 90 mins by microfluidic peptide phosphorylation assay
# [11] = biological target: T2, Serine/threonine-protein kinase 3 (Homo sapiens); assay: Inhibition of human full length MST2 expressed in baculovirus assessed as substrate phosphorylation using fluorescence-labelled peptides as substrate at 8 uM after 90 mins by microfluidic peptide phosphorylation assay
# [12] = biological target: Mitogen-activated protein kinase kinase kinase kinase 4 (Homo sapiens) (UniProt O95819); assay: Inhibition of human HGK catalytic domain expressed in baculovirus assessed as substrate phosphorylation using fluorescence-labelled peptides as substrate at 70 uM after 90 mins by microfluidic peptide phosphorylation assay
# [13] = biological target: T2, Serine/threonine-protein kinase 3 (Homo sapiens); assay: Inhibition of human full length MST2 expressed in baculovirus assessed as substrate phosphorylation using fluorescence-labelled peptides as substrate at 70 uM after 90 mins by microfluidic peptide phosphorylation assay
# Sequence of Mitogen-activated protein kinase kinase kinase kinase 4 (Homo sapiens) (O95819 2-1239 limits assumed): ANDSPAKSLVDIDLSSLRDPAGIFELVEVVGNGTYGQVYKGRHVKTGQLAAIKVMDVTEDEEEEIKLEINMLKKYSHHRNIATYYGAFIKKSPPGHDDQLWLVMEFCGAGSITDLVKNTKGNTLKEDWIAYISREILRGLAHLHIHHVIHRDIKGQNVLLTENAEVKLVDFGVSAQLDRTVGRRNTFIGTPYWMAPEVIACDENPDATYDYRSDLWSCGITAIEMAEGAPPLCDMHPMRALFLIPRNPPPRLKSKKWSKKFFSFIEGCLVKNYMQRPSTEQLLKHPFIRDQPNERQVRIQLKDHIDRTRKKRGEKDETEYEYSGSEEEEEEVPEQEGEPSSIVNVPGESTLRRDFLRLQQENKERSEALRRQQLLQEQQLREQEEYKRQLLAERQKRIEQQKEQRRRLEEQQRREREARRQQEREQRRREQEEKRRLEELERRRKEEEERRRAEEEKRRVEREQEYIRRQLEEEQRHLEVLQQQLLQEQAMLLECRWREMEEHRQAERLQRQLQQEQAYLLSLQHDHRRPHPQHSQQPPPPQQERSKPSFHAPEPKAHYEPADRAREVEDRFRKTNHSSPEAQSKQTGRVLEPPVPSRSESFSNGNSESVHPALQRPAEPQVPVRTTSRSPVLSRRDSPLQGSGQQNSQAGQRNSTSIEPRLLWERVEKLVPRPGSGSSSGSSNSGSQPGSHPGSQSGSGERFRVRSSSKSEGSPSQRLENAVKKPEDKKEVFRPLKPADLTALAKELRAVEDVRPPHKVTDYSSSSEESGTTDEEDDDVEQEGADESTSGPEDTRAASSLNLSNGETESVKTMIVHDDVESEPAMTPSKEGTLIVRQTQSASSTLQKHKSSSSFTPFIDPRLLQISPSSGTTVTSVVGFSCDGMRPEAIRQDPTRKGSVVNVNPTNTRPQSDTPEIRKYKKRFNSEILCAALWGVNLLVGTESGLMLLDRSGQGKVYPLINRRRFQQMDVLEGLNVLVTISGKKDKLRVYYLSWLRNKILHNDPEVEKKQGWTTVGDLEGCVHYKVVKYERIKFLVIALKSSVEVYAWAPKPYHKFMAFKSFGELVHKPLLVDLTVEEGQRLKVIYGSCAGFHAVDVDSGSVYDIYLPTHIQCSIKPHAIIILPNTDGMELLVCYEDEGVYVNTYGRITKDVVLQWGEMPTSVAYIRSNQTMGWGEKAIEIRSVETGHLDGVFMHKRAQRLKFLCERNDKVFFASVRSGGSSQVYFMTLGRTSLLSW
# Sequence of Serine/threonine-protein kinase MARK2 (Homo sapiens) (Q7KZI7 whole entry): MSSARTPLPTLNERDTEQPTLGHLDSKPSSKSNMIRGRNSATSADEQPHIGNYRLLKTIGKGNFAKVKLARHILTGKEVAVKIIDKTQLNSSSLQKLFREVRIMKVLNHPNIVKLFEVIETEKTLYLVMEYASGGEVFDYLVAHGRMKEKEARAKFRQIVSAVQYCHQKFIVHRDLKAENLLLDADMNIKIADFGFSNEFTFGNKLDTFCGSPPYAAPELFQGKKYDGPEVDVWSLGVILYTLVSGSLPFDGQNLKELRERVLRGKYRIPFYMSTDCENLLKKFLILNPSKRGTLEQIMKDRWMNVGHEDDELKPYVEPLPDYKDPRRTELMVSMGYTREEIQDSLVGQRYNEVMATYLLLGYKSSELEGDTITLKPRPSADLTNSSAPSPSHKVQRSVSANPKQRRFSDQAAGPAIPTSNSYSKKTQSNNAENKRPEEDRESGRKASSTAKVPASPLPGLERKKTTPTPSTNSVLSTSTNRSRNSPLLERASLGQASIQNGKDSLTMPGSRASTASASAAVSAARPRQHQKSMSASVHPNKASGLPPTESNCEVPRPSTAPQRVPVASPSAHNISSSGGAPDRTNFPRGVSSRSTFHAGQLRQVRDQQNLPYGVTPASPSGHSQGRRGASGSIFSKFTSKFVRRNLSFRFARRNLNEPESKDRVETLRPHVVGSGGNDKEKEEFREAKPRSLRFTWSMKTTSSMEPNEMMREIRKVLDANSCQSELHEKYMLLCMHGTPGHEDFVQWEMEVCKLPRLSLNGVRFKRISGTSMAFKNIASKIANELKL
# Sequence of Fibroblast growth factor receptor 2 (Homo sapiens) (P21802 22-821 limits assumed): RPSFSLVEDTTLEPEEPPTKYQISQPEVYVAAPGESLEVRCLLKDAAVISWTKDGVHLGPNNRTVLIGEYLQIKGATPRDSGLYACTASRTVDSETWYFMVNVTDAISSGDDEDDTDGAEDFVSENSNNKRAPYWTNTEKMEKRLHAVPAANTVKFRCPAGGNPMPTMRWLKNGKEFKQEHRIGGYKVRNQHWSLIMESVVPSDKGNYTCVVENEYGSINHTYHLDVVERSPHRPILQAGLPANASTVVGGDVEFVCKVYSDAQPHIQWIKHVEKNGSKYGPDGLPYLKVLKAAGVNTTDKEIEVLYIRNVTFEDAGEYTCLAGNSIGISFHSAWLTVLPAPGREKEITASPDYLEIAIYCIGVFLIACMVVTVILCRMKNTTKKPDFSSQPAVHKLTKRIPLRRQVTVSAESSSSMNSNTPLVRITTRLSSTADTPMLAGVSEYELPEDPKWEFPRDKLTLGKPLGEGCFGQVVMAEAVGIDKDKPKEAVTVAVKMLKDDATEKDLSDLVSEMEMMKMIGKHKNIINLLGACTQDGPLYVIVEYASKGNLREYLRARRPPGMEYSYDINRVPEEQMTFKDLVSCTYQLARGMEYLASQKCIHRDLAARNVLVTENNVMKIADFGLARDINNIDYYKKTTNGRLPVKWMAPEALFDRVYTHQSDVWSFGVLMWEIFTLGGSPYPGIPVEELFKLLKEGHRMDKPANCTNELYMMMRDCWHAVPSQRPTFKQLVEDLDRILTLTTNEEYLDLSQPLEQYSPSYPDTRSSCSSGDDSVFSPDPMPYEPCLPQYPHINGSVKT
# Sequence of Ribosomal protein S6 kinase alpha-4 (Homo sapiens) (O75676 whole entry, looked up, the tested form may be a part): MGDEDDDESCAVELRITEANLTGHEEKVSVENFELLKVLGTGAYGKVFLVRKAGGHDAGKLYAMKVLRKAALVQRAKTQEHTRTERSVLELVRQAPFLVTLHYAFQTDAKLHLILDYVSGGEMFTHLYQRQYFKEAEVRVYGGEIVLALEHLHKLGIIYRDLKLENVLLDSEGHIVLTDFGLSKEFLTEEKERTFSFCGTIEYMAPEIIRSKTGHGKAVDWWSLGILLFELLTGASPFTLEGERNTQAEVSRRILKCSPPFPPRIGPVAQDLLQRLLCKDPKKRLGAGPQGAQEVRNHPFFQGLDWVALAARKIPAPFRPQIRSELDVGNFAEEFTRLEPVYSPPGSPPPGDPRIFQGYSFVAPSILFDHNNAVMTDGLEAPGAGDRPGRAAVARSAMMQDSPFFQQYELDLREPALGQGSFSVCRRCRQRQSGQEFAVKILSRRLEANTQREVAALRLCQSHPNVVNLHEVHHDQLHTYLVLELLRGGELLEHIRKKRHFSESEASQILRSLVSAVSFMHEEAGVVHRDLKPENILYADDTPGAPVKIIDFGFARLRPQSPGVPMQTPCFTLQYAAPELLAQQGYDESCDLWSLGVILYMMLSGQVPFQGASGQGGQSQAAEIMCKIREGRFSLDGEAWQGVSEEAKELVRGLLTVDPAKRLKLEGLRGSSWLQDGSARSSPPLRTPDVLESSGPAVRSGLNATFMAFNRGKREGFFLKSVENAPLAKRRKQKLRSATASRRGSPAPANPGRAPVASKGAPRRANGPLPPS
# Sequence of Ribosomal protein S6 kinase alpha-1 (Homo sapiens) (Q15418 whole entry): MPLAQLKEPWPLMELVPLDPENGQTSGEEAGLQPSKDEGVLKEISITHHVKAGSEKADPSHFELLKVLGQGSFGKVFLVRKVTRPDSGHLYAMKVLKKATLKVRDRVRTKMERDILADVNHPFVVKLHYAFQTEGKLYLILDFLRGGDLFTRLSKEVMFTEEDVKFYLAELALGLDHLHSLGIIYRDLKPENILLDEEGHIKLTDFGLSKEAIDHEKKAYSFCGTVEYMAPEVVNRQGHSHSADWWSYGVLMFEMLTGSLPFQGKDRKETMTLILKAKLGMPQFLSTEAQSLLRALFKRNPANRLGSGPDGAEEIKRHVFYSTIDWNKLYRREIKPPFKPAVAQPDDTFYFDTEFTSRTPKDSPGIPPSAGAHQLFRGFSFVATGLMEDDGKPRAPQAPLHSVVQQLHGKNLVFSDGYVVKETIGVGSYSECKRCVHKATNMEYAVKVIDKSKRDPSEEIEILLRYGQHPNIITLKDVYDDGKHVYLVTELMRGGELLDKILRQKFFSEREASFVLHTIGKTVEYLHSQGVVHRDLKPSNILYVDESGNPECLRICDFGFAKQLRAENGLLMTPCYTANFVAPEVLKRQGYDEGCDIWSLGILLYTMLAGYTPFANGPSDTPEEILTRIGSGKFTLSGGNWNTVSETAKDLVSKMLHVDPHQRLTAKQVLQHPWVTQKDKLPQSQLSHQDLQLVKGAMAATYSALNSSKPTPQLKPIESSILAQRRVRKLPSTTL
structure (smiles),measurement,setting,value
c1nc(N2CCOCC2)c2nc[nH]c2n1,inhibition,[1],64.5%
NCC1CN(c2ncnc3[nH]c4cnccc4c23)CCO1 (stereo not drawn),inhibition,[2],11%
NC1CCN(c2ncnc3[nH]ccc23)CC1,inhibition,[3],0%
same,inhibition,[4],34.5%
C[C@H](CN(C)C)Oc1nc(Nc2cc3cccc(Cl)c3cn2)cnc1C#N,inhibition,[5],0%
NCCc1ccc(-c2ncnc3[nH]cnc23)cc1,inhibition,[6],49%
same,inhibition,[7],54%
same,inhibition,[8],37%
COC(=O)c1cnc(Nc2cnc(C#N)cn2)cc1NCC1CCNCC1,inhibition,[9],0.5%
NC1(Cc2ccc(Cl)cc2)CCN(c2ncnc3[nH]ccc23)CC1,inhibition,[10],19.5%
NCC1CCN(c2ncnc3[nH]ccc23)CC1,inhibition,[11],73%
CNCc1ccc(-c2ncnc3[nH]cnc23)cc1,inhibition,[12],42%
same,inhibition,[13],88%
